Laboratory results published in PubChem BioAssay (NCI).
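Protocol summary: plate cells (96-well), add compound at 5 concentrations, incubate 48 h, interpolate endpoints linearly. TGI marks complete inhibition of growth.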

Legend:
Test in all cases: NCI tumour cell line growth inhibition, 48 h
[1] = tested on: 786-0 renal
[2] = tested on: A498 renal
[3] = tested on: A549 NSCLC
[4] = tested on: ACHN renal
[5] = tested on: BT-549 breast
[6] = tested on: CAKI-1 renal
[7] = tested on: CCRF-CEM leukemia
[8] = tested on: COLO 205 colon
[9] = tested on: DU-145 prostate
[10] = tested on: EKVX NSCLC
[11] = tested on: HCC-2998 colon
[12] = tested on: HCT-116 colon
[13] = tested on: HCT-15 colon
[14] = tested on: HL-60(TB) leukemia
[15] = tested on: HOP-62 NSCLC
[16] = tested on: HOP-92 NSCLC
[17] = tested on: HS 578T breast
[18] = tested on: HT29 colon
[19] = tested on: IGROV1 ovarian
[20] = tested on: K-562 leukemia
[21] = tested on: KM12 colon
[22] = tested on: LOX IMVI melanoma
[23] = tested on: M14 melanoma
[24] = tested on: MALME-3M melanoma
[25] = tested on: MCF7 breast
[26] = tested on: MDA-MB-231 breast
[27] = tested on: MDA-MB-435
[28] = tested on: MDA-N
[29] = tested on: MOLT-4 leukemia
[30] = tested on: NCI-H226 lung
[31] = tested on: NCI-H23 lung
[32] = tested on: NCI-H460 lung
[33] = tested on: NCI-H522 lung
[34] = tested on: NCI/ADR-RES ovarian
[35] = tested on: OVCAR-3 ovarian
[36] = tested on: OVCAR-4 ovarian
[37] = tested on: OVCAR-5 ovarian
[38] = tested on: OVCAR-8 ovarian
[39] = tested on: PC-3 prostate
[40] = tested on: RPMI-8226 leukemia
[41] = tested on: SF-268 CNS
[42] = tested on: SF-295 CNS
[43] = tested on: SF-539 CNS
[44] = tested on: SK-MEL-2 melanoma
[45] = tested on: SK-MEL-28 melanoma
[46] = tested on: SK-MEL-5 melanoma
[47] = tested on: SK-OV-3 ovarian
[48] = tested on: SN12C renal
[49] = tested on: SNB-19 CNS
[50] = tested on: SNB-75 CNS
[51] = tested on: SR leukemia
[52] = tested on: SW-620 colon
[53] = tested on: T-47D breast
[54] = tested on: TK-10 renal
[55] = tested on: U251 CNS
[56] = tested on: UACC-257 melanoma
[57] = tested on: UACC-62 melanoma
[58] = tested on: UO-31 renal
[59] = tested on: RXF 393 renal

In the case of `COc1ccc(/C(=N/Nc2nc3ccccc3[nH]2)C(=O)O)cc1`, the TGI [1] is reported as over 100 µM, the TGI [2] is reported as over 100 µM and the TGI [3] is reported as over 100 µM. It also gave a TGI [4] of over 100 µM, a TGI [5] of over 100 µM and a TGI [6] of over 100 µM. The TGI [7] was over 100 µM, the TGI [8] was over 100 µM and the TGI [9] was over 100 µM. It also gave a TGI [10] of over 100 µM, a TGI [11] of over 100 µM and a TGI [12] of over 100 µM. The TGI [13] was over 100 µM, the TGI [14] was over 100 µM and the TGI [15] was over 100 µM. It also gave a TGI [16] of over 100 µM, a TGI [17] of over 100 µM and a TGI [18] of over 100 µM. For the same compound, the TGI [19] was over 100 µM, the TGI [20] was over 100 µM and the TGI [21] was over 100 µM. It also gave a TGI [22] of over 100 µM, a TGI [23] of over 100 µM and a TGI [24] of over 100 µM. It also gave a TGI [25] of over 100 µM, a TGI [26] of over 100 µM and a TGI [27] of over 100 µM. For the same compound, the TGI [28] was over 100 µM, the TGI [29] was over 100 µM and the TGI [30] was over 100 µM. It also gave a TGI [31] of over 100 µM, a TGI [32] of over 100 µM and a TGI [33] of over 100 µM. The TGI [34] was over 100 µM, the TGI [35] was over 100 µM and the TGI [36] was over 100 µM. For the same compound, the TGI [37] was over 100 µM, the TGI [38] was over 100 µM and the TGI [39] was over 100 µM. For the same compound, the TGI [40] was over 100 µM, the TGI [41] was over 100 µM and the TGI [42] was over 100 µM. The TGI [43] was over 100 µM, the TGI [44] was over 100 µM and the TGI [45] was over 100 µM. It also gave a TGI [46] of over 100 µM, a TGI [47] of over 100 µM and a TGI [48] of over 100 µM. For the same compound, the TGI [49] was over 100 µM, the TGI [50] was over 100 µM and the TGI [51] was over 100 µM. The TGI [52] was over 100 µM, the TGI [53] was over 100 µM and the TGI [54] was over 100 µM. It also gave a TGI [55] of over 100 µM, a TGI [56] of over 100 µM and a TGI [57] of over 100 µM. It also gave a TGI [58] of over 100 µM.

In the case of `CCOC(=O)C(NC(=O)CC)(Nc1ccc(S(=O)(=O)Nc2nc(C)cc(C)n2)cc1)C(F)(F)F` (stereo unspecified), the TGI [1] is reported as over 100 µM, the TGI [2] is reported as over 100 µM and the TGI [3] is reported as over 100 µM. For the same compound, the TGI [4] was over 100 µM, the TGI [5] was over 100 µM and the TGI [6] was over 100 µM. It also gave a TGI [7] of over 100 µM, a TGI [8] of over 100 µM and a TGI [9] of over 100 µM. It also gave a TGI [10] of over 100 µM, a TGI [11] of over 100 µM and a TGI [12] of over 100 µM. For the same compound, the TGI [13] was over 100 µM, the TGI [14] was over 100 µM and the TGI [15] was over 100 µM. For the same compound, the TGI [16] was over 100 µM, the TGI [17] was over 100 µM and the TGI [18] was over 100 µM. For the same compound, the TGI [19] was over 100 µM, the TGI [20] was over 100 µM and the TGI [21] was over 100 µM. The TGI [22] was over 100 µM, the TGI [23] was over 100 µM and the TGI [24] was over 100 µM. For the same compound, the TGI [25] was over 100 µM, the TGI [26] was over 100 µM and the TGI [27] was over 100 µM. It also gave a TGI [28] of over 100 µM, a TGI [29] of over 100 µM and a TGI [30] of over 100 µM. It also gave a TGI [31] of over 100 µM, a TGI [32] of over 100 µM and a TGI [33] of over 100 µM. It also gave a TGI [34] of over 100 µM, a TGI [35] of over 100 µM and a TGI [36] of over 100 µM. The TGI [37] was over 100 µM, the TGI [38] was over 100 µM and the TGI [39] was over 100 µM. The TGI [40] was over 100 µM, the TGI [59] was over 100 µM and the TGI [41] was over 100 µM. For the same compound, the TGI [42] was over 100 µM, the TGI [43] was over 100 µM and the TGI [44] was over 100 µM. For the same compound, the TGI [45] was over 100 µM, the TGI [46] was over 100 µM and the TGI [47] was over 100 µM. For the same compound, the TGI [48] was over 100 µM, the TGI [49] was over 100 µM and the TGI [50] was over 100 µM. The TGI [51] was over 100 µM, the TGI [52] was over 100 µM and the TGI [53] was over 100 µM. For the same compound, the TGI [54] was over 100 µM, the TGI [55] was over 100 µM and the TGI [56] was over 100 µM. For the same compound, the TGI [57] was over 100 µM and the TGI [58] was over 100 µM.

`CCOC(=O)/C(C#N)=C(/NNc1ccccc1)c1ccncc1C(=O)O` was tested, and the TGI [1] was over 100 µM, the TGI [2] was over 100 µM and the TGI [3] was over 100 µM. For the same compound, the TGI [4] was over 100 µM, the TGI [5] was over 100 µM and the TGI [6] was over 100 µM. For the same compound, the TGI [7] was over 100 µM, the TGI [8] was 22.5 µM and the TGI [9] was over 100 µM. For the same compound, the TGI [10] was over 100 µM, the TGI [11] was over 95.6 µM and the TGI [12] was over 100 µM. The TGI [13] was over 100 µM, the TGI [14] was over 100 µM and the TGI [15] was over 100 µM. It also gave a TGI [16] of over 100 µM, a TGI [17] of over 100 µM and a TGI [18] of over 100 µM. For the same compound, the TGI [19] was over 100 µM, the TGI [20] was over 100 µM and the TGI [21] was over 100 µM. It also gave a TGI [22] of over 100 µM, a TGI [23] of over 100 µM and a TGI [24] of over 100 µM. It also gave a TGI [25] of over 100 µM, a TGI [26] of over 100 µM and a TGI [27] of over 100 µM. For the same compound, the TGI [28] was over 100 µM, the TGI [29] was over 100 µM and the TGI [30] was over 100 µM. The TGI [31] was over 100 µM, the TGI [32] was over 100 µM and the TGI [33] was over 100 µM. The TGI [34] was over 100 µM, the TGI [35] was over 100 µM and the TGI [36] was over 100 µM. It also gave a TGI [37] of over 100 µM, a TGI [38] of over 100 µM and a TGI [39] of over 100 µM. For the same compound, the TGI [40] was over 100 µM, the TGI [59] was over 100 µM and the TGI [41] was over 100 µM. For the same compound, the TGI [42] was over 100 µM, the TGI [43] was over 88.3 µM and the TGI [44] was over 100 µM. For the same compound, the TGI [45] was over 100 µM, the TGI [46] was over 48.9 µM and the TGI [47] was over 100 µM. It also gave a TGI [48] of over 100 µM, a TGI [49] of over 100 µM and a TGI [50] of over 100 µM. It also gave a TGI [51] of over 100 µM, a TGI [52] of over 100 µM and a TGI [53] of over 100 µM. For the same compound, the TGI [54] was over 100 µM, the TGI [55] was over 100 µM and the TGI [56] was over 100 µM. For the same compound, the TGI [57] was over 100 µM and the TGI [58] was over 100 µM.
